According to ChEMBL document CHEMBL1201862, “PubChem BioAssay data set” (2004):
Activity calls are given as the source filed them.

Legend:
[1] = target: T1, Eukaryotic translation initiation factor 4H (Homo sapiens, UniProt Q15056); assay: eIF4H binding inhibition – biochemical, uHTS, fluorescence polarization, translation initiation inhibitor project, primary screen (AID 2012)
[2] = target: T2, Polyadenylate-binding protein 1 (Homo sapiens, UniProt P11940); assay: blockers of PABP interaction with poly(A) – biochemical, fluorescence polarization, […] (AID 2014)
T2 sequence (P11940 whole entry): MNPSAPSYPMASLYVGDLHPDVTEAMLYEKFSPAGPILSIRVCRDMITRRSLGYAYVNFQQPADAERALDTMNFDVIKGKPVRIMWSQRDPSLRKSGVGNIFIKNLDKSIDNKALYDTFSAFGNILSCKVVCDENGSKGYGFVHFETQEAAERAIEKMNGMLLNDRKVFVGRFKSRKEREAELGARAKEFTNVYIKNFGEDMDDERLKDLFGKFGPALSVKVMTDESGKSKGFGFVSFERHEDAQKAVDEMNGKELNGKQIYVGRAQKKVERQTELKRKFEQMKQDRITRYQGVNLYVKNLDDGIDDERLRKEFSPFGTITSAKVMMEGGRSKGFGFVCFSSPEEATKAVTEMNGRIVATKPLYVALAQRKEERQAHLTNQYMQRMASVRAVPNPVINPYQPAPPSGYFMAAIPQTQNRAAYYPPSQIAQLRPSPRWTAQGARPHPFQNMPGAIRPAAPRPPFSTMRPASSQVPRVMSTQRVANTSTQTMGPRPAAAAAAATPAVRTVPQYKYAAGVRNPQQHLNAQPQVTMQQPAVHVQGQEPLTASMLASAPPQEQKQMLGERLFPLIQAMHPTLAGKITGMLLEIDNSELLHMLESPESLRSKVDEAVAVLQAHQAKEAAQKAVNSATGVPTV

[3] = target: T1, Eukaryotic translation initiation factor 4H; assay: inhibitors of translation initiation factor eIF4H – SAR follow-up (AID 435011); type: functional
[4] = target: T3, DNA dC->dU-editing enzyme APOBEC-3A (Homo sapiens, UniProt P31941); assay: Dose Response confirmation of small molecule APOBEC3A DNA Deaminase Inhibitors via a fluorescence-based single-stranded DNA deaminase assay. [Related pubchem assays (depositor defined):AID493011, AID493024]; type: functional
T3 sequence (P31941 whole entry): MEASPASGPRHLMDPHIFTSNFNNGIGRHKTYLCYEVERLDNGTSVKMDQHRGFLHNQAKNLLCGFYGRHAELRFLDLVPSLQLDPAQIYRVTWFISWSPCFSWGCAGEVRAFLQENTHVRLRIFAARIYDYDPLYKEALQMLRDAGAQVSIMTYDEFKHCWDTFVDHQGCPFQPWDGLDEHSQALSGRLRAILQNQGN

[5] = target: T2, Polyadenylate-binding protein 1; assay: PABP inhibition in translation initiation, SAR follow-up (AID 435018); type: functional
[6] = target: T4, DNA dC->dU-editing enzyme APOBEC-3G (Homo sapiens, UniProt Q9HC16); type: functional
T4 sequence (Q9HC16 whole entry): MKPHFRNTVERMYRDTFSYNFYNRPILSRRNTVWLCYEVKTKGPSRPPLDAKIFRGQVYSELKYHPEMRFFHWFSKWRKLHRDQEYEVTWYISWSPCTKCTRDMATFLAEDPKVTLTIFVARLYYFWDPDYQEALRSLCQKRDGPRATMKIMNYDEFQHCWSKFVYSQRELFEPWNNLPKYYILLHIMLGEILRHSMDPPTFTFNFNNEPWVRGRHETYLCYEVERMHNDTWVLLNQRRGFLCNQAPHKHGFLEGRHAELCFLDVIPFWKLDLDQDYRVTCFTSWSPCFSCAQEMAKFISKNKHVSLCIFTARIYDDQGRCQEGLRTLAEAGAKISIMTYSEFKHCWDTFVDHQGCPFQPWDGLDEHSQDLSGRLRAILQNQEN

[7] = target: T3, DNA dC->dU-editing enzyme APOBEC-3A; assay: A3A deaminase inhibition for selectivity – biochemical, dose response (AID 504722); type: functional
[8] = target: T4, DNA dC->dU-editing enzyme APOBEC-3G; assay: Dose Response confirmation of small molecule APOBEC3G DNA Deaminase Inhibitors via a fluorescence-based single-stranded DNA deaminase assay. [Related pubchem assays (depositor defined):AID493012, AID493028]; type: functional
[9] = target: T5, Rac GTPase-activating protein 1 (Homo sapiens, UniProt Q9H0H5); assay: blockers of MgcRacGAP-driven Rac1 GTP hydrolysis – biochemical, ADP Hunter fluorescence, primary and confirmatory, confirmation (AID 624330); type: functional
T5 sequence (Q9H0H5 whole entry): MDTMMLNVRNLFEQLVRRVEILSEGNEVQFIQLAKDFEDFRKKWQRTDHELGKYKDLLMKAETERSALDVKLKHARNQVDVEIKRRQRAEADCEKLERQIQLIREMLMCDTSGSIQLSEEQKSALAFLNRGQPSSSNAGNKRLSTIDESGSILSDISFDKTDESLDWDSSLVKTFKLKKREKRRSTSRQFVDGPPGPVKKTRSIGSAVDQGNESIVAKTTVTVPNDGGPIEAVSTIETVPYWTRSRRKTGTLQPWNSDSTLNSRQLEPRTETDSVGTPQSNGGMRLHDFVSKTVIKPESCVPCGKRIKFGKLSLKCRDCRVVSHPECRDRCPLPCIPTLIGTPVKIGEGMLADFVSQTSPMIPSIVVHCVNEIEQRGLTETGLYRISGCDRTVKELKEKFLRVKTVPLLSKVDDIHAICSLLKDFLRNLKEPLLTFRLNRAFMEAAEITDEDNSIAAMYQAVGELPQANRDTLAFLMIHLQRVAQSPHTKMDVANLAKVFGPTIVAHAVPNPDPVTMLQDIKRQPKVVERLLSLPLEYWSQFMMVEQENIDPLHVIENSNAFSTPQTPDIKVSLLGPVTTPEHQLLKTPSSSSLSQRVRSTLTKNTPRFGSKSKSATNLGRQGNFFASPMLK

[10] = target: Melanin-concentrating hormone receptor 1 (Homo sapiens, UniProt Q99705); assay: Late-stage fluorescence-based counterscreen for antagonists of the G-protein coupled receptor 7 (GPR7): cell-based dose response assay to identify antagonists of the melanin-concentrating hormone receptor 1 (MCHR1). [Related pubchem assays (depositor defined):AID1861, AID1880, AID1952, AID2148, AID2251, AID2257, AID485339]; type: functional;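 also: stimulated with 30 nM MCH peptide agonist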
Melanin-concentrating hormone receptor 1, sequence (Q99705 whole entry): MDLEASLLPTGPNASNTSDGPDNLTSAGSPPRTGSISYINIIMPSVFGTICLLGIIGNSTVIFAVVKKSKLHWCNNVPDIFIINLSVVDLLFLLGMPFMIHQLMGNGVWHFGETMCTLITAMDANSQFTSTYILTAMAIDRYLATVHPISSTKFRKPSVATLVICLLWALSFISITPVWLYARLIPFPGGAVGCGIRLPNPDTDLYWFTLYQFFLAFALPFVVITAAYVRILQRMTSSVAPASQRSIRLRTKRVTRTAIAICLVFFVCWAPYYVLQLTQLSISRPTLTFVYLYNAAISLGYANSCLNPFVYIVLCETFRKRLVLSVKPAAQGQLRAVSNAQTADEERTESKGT

[11] = target: T6, Neuropeptides B/W receptor type 1 (Homo sapiens, UniProt P48145); assay: human NPBW1 receptor blockade, IC50 – cell-based, fluorescence, dose response, late-stage follow-up (AID 463251); type: functional
T6 sequence (P48145 whole entry): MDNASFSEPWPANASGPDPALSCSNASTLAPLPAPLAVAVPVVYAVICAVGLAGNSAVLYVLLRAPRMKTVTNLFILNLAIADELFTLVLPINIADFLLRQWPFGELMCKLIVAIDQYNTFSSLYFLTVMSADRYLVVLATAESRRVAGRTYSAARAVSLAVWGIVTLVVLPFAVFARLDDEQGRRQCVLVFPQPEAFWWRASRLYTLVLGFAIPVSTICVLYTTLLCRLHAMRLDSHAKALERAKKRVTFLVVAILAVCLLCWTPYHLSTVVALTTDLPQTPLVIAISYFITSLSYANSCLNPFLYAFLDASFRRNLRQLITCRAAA

[12] = target: Voltage-dependent T-type calcium channel subunit alpha-1H (Homo sapiens, UniProt O95180); assay: human CACNA1H calcium influx blockade – cell-based, synthetic library set 1, calcium flux (AID 493022); type: functional
[13] = target: T7, Cannabinoid receptor 2 (Homo sapiens, UniProt P34972); assay: SAR analysis of antagonists of the Cannabinoid Receptor 2 using an Image-Based Assay - Set 2. [Related pubchem assays (depositor defined):AID1961, AID1965]; type: functional
T7 sequence (P34972 whole entry): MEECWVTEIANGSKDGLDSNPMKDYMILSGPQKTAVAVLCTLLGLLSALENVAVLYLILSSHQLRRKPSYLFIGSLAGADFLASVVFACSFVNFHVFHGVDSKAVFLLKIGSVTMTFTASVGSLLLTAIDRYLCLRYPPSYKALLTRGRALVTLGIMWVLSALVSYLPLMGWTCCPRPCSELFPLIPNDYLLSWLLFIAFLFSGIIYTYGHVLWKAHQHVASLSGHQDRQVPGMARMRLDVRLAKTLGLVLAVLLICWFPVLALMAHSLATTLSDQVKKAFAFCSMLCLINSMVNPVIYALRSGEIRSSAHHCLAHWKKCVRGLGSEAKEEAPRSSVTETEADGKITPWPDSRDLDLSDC

[14] = target: G-protein coupled receptor 55 (Homo sapiens, UniProt Q9Y2T6); assay: SAR analysis of selective Agonists of GPR55 using an Image-Based Assay - Set 2. [Related pubchem assays (depositor defined):AID1961, AID1965]; type: functional
G-protein coupled receptor 55, sequence (Q9Y2T6 whole entry): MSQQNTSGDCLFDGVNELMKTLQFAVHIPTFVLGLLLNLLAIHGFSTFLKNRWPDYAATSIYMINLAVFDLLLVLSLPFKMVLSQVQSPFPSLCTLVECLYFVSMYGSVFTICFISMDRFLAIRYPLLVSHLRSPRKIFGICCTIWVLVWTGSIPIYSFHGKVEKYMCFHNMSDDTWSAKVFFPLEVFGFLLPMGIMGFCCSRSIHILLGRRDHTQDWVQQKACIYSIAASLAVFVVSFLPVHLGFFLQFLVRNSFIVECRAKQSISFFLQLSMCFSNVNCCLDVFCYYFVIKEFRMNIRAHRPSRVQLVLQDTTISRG

[15] = target: T7, Cannabinoid receptor 2; assay: SAR analysis of agonists of the Cannabinoid Receptor 2 using an Image-Based Assay - Set 2. [Related pubchem assays (depositor defined):AID1961, AID1965]; type: functional
[16] = target: T8, G-protein coupled receptor 35 (Homo sapiens, UniProt Q9HC97); assay: SAR analysis of Agonists of the GPR35 Receptor using an Image-Based Assay - Set 3. [Related pubchem assays (depositor defined):AID1961, AID1965]; type: functional
T8 sequence (Q9HC97 whole entry): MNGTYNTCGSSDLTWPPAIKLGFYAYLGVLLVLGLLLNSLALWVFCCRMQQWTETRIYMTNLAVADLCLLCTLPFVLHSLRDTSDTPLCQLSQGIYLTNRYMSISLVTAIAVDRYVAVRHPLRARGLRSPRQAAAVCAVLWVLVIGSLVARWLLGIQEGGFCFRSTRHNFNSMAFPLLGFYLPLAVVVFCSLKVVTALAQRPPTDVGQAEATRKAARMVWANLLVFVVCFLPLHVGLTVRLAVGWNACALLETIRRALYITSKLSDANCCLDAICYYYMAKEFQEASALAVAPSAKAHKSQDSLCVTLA

[17] = target: T9, Cannabinoid receptor 1 (Homo sapiens, UniProt P21554); assay: SAR analysis of antagonists of the Cannabinoid Receptor 1 using an Image-Based Assay - Set 3. [Related pubchem assays (depositor defined):AID1961, AID1965]; type: functional
T9 sequence (P21554 whole entry): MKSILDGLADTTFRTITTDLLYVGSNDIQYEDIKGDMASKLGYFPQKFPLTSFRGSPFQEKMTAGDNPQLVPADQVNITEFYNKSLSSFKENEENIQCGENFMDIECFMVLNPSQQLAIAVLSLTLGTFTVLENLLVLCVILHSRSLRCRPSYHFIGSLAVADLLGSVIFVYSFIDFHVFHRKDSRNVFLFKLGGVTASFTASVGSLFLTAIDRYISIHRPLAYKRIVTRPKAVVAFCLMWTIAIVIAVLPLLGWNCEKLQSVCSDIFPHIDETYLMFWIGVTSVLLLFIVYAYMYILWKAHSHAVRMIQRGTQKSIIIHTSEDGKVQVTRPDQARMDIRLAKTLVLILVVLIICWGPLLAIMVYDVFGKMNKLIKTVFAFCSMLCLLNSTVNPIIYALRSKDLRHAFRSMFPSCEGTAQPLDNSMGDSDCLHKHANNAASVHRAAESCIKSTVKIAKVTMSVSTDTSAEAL

[18] = target: T9, Cannabinoid receptor 1; assay: SAR analysis of agonists of the Cannabinoid Receptor 1 using an Image-Based Assay - Set 3. [Related pubchem assays (depositor defined):AID1961, AID1965]; type: functional
[19] = target: T8, G-protein coupled receptor 35; assay: SAR analysis of Antagonists of the GPR35 Receptor using an Image-Based Assay - Set 4. [Related pubchem assays (depositor defined):[…]]; type: functional
[20] = target: Glyceraldehyde-3-phosphate dehydrogenase (Homo sapiens, UniProt P04406)
Glyceraldehyde-3-phosphate dehydrogenase, sequence (P04406 whole entry): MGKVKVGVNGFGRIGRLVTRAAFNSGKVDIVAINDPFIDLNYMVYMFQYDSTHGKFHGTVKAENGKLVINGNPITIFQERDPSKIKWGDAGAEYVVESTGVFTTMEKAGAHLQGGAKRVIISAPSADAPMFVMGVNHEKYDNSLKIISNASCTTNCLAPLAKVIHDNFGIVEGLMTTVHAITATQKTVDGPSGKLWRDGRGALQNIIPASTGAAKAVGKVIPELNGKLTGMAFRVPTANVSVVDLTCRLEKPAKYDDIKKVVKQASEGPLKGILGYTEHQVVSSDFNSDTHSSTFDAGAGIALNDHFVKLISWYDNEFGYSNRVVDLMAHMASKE

[21] = target: Alkaline phosphatase, placental type (Homo sapiens, UniProt P05187); assay: human placental alkaline phosphatase inhibition – biochemical, luminescence, confirmation (AID 1512); type: functional
Alkaline phosphatase, placental type, sequence (P05187 whole entry): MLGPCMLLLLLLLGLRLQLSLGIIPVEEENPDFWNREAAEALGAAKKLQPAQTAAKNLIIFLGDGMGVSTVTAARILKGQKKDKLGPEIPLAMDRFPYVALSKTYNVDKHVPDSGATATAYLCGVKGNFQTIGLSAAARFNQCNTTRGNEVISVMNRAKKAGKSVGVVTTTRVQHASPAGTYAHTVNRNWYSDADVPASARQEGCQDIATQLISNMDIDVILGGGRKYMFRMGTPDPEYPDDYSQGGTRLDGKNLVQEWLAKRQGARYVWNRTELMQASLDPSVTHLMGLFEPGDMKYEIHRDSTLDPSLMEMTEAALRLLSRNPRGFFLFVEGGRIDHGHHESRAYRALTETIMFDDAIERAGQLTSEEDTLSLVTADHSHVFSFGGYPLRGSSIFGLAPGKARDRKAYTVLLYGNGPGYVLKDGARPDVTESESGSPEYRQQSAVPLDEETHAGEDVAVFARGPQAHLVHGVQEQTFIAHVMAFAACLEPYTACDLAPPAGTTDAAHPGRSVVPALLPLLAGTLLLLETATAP

## CCOC(=O)c1ccc2c(c1)N(CC)C(=O)c1ccccc1S2
[1]
  IC50: > 100 µM (inactive)
[2]
  IC50: 12.2 µM (active)
[3]
  IC50: 20.7 µM (active)
[4]
  IC50: 2.24 µM (active)
[5]
  IC50: 3.48 µM (active)
[6]
  IC50: 4.15 µM (active)

## CCOCCCn1c(=O)c2ccccc2n2c(S)nnc12
[7]
  IC50: > 100 µM (inactive)
[8]
  IC50: 5.54 µM (active)
[9]
  IC50: 21.9 µM (active)

## COC(=O)c1ccc(-n2ncc(Cl)c(Oc3ccc(OC)cc3)c2=O)cc1
[10]
  IC50: > 20 µM (inactive)
[11]
  IC50: 4.1 µM (active)

## O=C(COc1ccccc1F)Nc1nnc(-c2ccc3c(c2)OCCO3)o1
[12]
  EC50: 10 µM (active)

## Cc1cccc(N2CCN(C(=O)c3cccc(S(=O)(=O)N4CCOCC4)c3)CC2)c1C
[13]
  IC50: > 32 µM (inactive)
[14]
  EC50: > 32 µM (inactive)
[15]
  EC50: > 32 µM (inactive)
[16]
  EC50: > 32 µM (inactive)
[17]
  IC50: > 32 µM (inactive)
[18]
  EC50: > 32 µM (inactive)
[19]
  IC50: > 32 µM (inactive)

## CN(C)C(=O)c1cc(-c2ccc(Cl)cc2Cl)n[nH]1
[20]
  IC50: > 100 µM (not active)
[21]
  IC50: > 100 µM (inactive)
